From patent publication US20250325675A1, “APTAMER, CONJUGATE, COMPOSITION, METHOD FOR PREPARING SAME, AND USE THEREOF” (priority 2022, published 2025) come the findings set out here.

The test system of one data set is U118MG glioma cells. As to the kind of experiment: High content imaging: entry of conjugates into U118MG glioma cells. It is filed as cell-based, human. As to conditions: 100 nM, 30 min 37°C, normalized to control group 2Y. The protocol: (§1) In this experiment, the entry of conjugate AP1 provided by the present disclosure and comparative conjugate comparative AP10 into different cells was observed by a PerkinElmer High Content Imaging system (Operatta).
(§2) U118MG glioma cells, SVGp12 normal astrocytes, T98G human brain glioma cells, U251 human glioma cells, A549 human non-small cell lung cancer cells, MCF-7 human breast cancer cells, and 293T human kidney epithelial cells were all purchased from the Shanghai Cell Bank of Chinese Academy of Sciences. […] The supernatant was aspirated and DPBS buffer (purchased from Thermo Fisher) was added to wash the plate 2 times (100 μL each time).
(§3) Conjugate AP1 prepared above and yeast tRNA were respectively formulated into conjugate solution 2A with DMEM medium, and the conjugate solution 2A comprised yeast tRNA at a final concentration of 100 μg/mL and conjugate AP1 at a final concentration of 100 nM. […]
(§4) Normalization was performed according to the mean fluorescence intensity of control group 2Y, that is, subtracting the mean fluorescence intensity of control group 2Y from the fluorescence intensity of test group 2X before performing imaging.

The next data set concerns SVGp12 normal astrocytes. As to the kind of experiment: High content imaging: entry of conjugates into SVGp12 normal astrocytes. It is filed as cell-based, human. The following applies: 100 nM, 30 min 37°C. As to the method: as §1, §2, §3, §4
Another data set concerns U251 human glioma cells. As to the kind of experiment: High content imaging: entry of conjugates into U251 cells. The following applies: 100 nM, 30 min 37°C. Type of data set: cell-based. The protocol:
as §1, §2, §3, §4

Data set [1] concerns A549 human non-small cell lung cancer cells. As to the kind of experiment: High content imaging: entry of conjugates into A549 cells. Type of data set: cell-based. As to conditions: 100 nM, 30 min 37°C. As to the method:
as §1, §2, §3, §4

For data set [2], the system named is A549 human non-small cell lung cancer tumor spheres. As to the kind of experiment: High content imaging: entry into A549 tumor spheres. It is filed as cell-based. As to conditions: 100 nM, imaging without washing. As to the method:
In this experiment, the entry of conjugate AP1 provided by the present disclosure and comparative conjugate comparative AP10 into U118MG glioma tumor spheres and A549 human non-small cell lung cancer tumor spheres was observed by a PerkinElmer High Content Imaging system (Operatta).
80 μL fresh, sterilized and unsolidified 2% agarose was added into the culture wells of a 96-well plate. […] Half of the supernatant was aspirated every 48 h and fresh DMEM medium was added along the wall of the culture wells. After 7 days of culture, the cells were observed under the microscope to confirm that complete cell spheres were obtained, indicating successful tumor sphere cultivation.
Each culture well was added with AP1 or comparative AP10 according to the method of experimental Example 2, and imaged in a high content imaging system, with the only difference of directly performing imaging after culture without washing and performing imaging according to the measured fluorescence intensity of Cy5.

Data set [3] has as its system U118MG glioma subcutaneous tumor. Put plainly: In vivo distribution in U118MG cell subcutaneous tumor model mice (Experimental Example 4). The arrangement: species or system NOD-SCID mice. The following applies: mouse, in vivo. As to the method: U118MG human glioma cells in the logarithmic growth phase were selected and digested (0.25% pancreatic enzyme).
The mice were further fed for 20 days after injection.
The mice inoculated with U118MG above were randomly divided into 3 groups (4 mice per group). For the 4 mice per group, the administration volume was calculated according to 10 μL/g body weight, and AP1, AP2 and comparative AP11 were respectively administered to different groups of mice by tail vein injection and designated as test group 4A1, test group 4A2 and control group 4A3. Thus, the administration dosage of each mouse was 3 mg/kg (based on aptamer). Another mouse inoculated with U118MG above was administered with 1×DMEM medium by tail vein injection (the administration volume was 10 μL/g body weight), and designated as blank control group 4Y.

The subject of data set [4] is U118-MG neuroglioma cells. Put plainly: CCK8 cell viability, U118-MG neuroglioma cells (Experimental Example 12). The following applies: 72 h; AP1 50-800 nM, conjugate 19 25-800 nM; CCK8, OD450. It is filed as cell-based, human. As to the method:
U118MG neuroglioma cells were purchased from Jennio; SVGp12 human astrocytes were purchased from the Shanghai Cell Bank of Chinese Academy of Sciences; CCK8 kit was purchased from DOJINDO Laboratories.
U118MG cells and SVGp12 cells in the logarithmic growth phase were selected and seeded into a 96-well plate of a CCK8 kit at 5000 cells/well, cultured at 37° C. with 5% CO2 for 24 h. U118-MG cells and SVGp12 cells to be detected were obtained when the cell confluence was observed as 80% under microscope. […]
AP1 solution 1, AP1 solution 2, AP1 solution 3, and AP1 solution 4 were respectively added into U118-MG cells to be detected, and incubated at 37° C. for 72 h in the dark. […]
Conjugate 19 solution 1, Conjugate 19 solution 2, Conjugate 19 solution 3, Conjugate 19 solution 4, Conjugate 19 solution 5, Conjugate 19 solution 6, and Conjugate 19 solution 7 were respectively added into U118-MG cells to be detected, and incubated at 37° C. for 72 h in the dark. […]
CC8 kit was used to detect UV absorbance of test groups and control groups above at the detection wavelength of 450 nm in UV absorption spectrum according to the instructions, and the average value of the repeated experiments was taken for each group. Cell viability was calculated according to the following equation: […]

{Cy5} = cyanine 5 fluorescent dye

As to “CY5-CfUfGGAGUfUfCfAGACfGUfGUfUfGCfUfCfUfUfCfCfGAUfCfUfCf (CUGGAGUUCAGACGUGUUGCUCUUCCGAUCUC; 2'-fluoro at CU, RNA at AG, 5' {Cy5}, backbone not given here) [AP1]”, the “Cy5 fluorescence signal in cells” value was “strong Cy5 fluorescence signal” with U118MG glioma cells, “did not show any fluorescence signal” in the data set on SVGp12 normal astrocytes, “strong Cy5 fluorescence signal” in the data set with U251 human glioma cells and “strong Cy5 fluorescence signal” in data set [1]. Also, the “Cy5 fluorescence signal in tumor spheres” value in data set [2] is “strong Cy5 fluorescence signal”. In data set [3], the “fluorescence signal in mice / at site of tumor inoculation” value is “strong fluorescence signal at the sites of tumor inoculation”. Moreover, the “cell viability of tumor cells” value in data set [4] is given as “no effect on cell viability”.
